Test results taken from US10125150B2, “Crystalline forms of a PI3K inhibitor” (Incyte Corporation, priority 2015, dated 2018).

Key:
[1] = Competitive slurry experiments (stability of the crystalline forms), solid characterized by XRPD; type: physicochemical; conditions: 50° C.
Description: Forms I and X of the compound of Formula I were slurried together in a methanol-ethyl acetate (1:10) solvent system and heated at 50° C. for 5 days. Specifically, 5 mL of ethyl acetate and 0.5 mL of methanol were combined and heated to 50° C. Form I (from Example 1) was added to the solvent mixture until a cloudy solution formed (about 156 mg), and then additional Form I was added (about 50 mg). Then 50 mg of Form X (prepared as described in Example 12) was added. The mixture was stirred at 50° C. for 5 days and the solid was characterized and monitored by XRPD.
Forms I to XIII of the compound of Formula I were slurried together in a methanol-ethyl acetate (1:10) solvent system at room temperature for 8 days. Specifically, 10 mg of Form I (from Example 1) was added to 1 mL of ethyl acetate with stirring. Then 0.1 mL of methanol was added giving a cloudy solution to which 3 mg of additional Form I (from Example 1) was added. […]
Forms I and X of the compound of Formula I were slurried together in acetone and heated at 50° C. overnight. […] The mixture was stirred at 50° C. overnight and the solid was characterized and monitored by XRPD.
Forms I to XIII of the compound of Formula I were slurried together in acetone at room temperature for 11 days. […] The mixture was stirred at room temperature for 11 days and the resulting solid was characterized and monitored by XRPD.

[2] = Dynamic Vapor Sorption (DVS), moisture adsorption/desorption; type: physicochemical; conditions: 25° C.
Description: Dynamic Vapor Sorption (DVS) was performed in an SGA-100 Symmetric Vapor Sorption Analyzer from VTI Corporation. The moisture uptake profile was completed in three cycles in 10% RH increments with the first adsorption from 25% to 95% RH, followed by desorption in 10% increments from 95% to 5% RH. The equilibration criteria were 0.0050 wt % in 5 minutes with a maximum equilibration time of 180 minutes. All adsorption and desorption were performed at room temperature (25° C.). No pre-drying step was applied for the sample.
Moisture adsorption/desorption of Form I was analyzed by DVS. […] The shapes of the isotherms indicate weak adsorbent-adsorbate interaction and a low moisture uptake at low vapor concentration.

resulting crystalline form ([1]; Forms I and X slurried in acetone, overnight): predominantly Form X
resulting crystalline form ([1]; Forms I and X slurried in methanol-ethyl acetate (1:10), 5 days): predominantly Form I
initial water content (DVS) ([2]; no pre-drying): about 0.3%
water adsorption (DVS) ([2]; at 85% RH): 1.8%
Structure (SMILES): Cc1csc2nc([C@H](C)Nc3ncnc4[nH]cnc34)c(-c3cccc(F)c3)c(=O)n12 [Form I, (S)-7-(1-(9H-purin-6-ylamino)ethyl)-6-(3-fluorophenyl)-3-methyl-5H-thiazolo[3,2-a]pyrimidin-5-one]
